For data set [1], the system named is human gastric cancer cells (SGC-7901). Nature of the data set: MTT cell proliferation / cytotoxicity assay with trypan blue dye exclusion, SGC-7901 cells. Type of data set: cell-based. Conditions: for activity / inhibition against gastric cancer cells SGC-7901: after 24 and 72 hours of treatment, FIGS. 1A-3B. On the procedure:
(§1) In FIGS. 1A-3B, the cells were treated with a concentration of 10 μM of each compound.
(§2) The anti-proliferative effect was measured by MTT assay.
(§3) Six duplicate wells were set up for each sample, and cells untreated with a compound served as a control. Treatment was conducted at 24 and 72 hours, respectively. After incubation, 10 μL MTT (6 g/L, Sigma) was added to each well and the incubation was continued for 4 hours at 37° C. After removal of the medium, MTT stabilization solution (dimethylsulphoxide: ethanol=1:1) was added to each well, and shaken for ten minutes until all crystals were dissolved. Then, optical density was detected in a micro plate reader at 550 nm wavelength using an enzyme-linked immunosorbent assay (ELISA) reader. Each assay was performed in triplicate. Cell number and viability were determined by trypan blue dye exclusion analysis.
(§4) The cytotoxicity assay was performed with various concentrations of the synthesized gold (III) complexes on PC-3 and SGC-7901 cells.

Data set [2] concerns prostate cancer cells (PC-3). The data set can be described thus: MTT cell proliferation / cytotoxicity assay with trypan blue dye exclusion, PC-3 cells. Format: cell-based, human. Conditions: for activity / inhibition against human prostate cancer cells (PC-3): after 24 and 72 hours of treatment, FIGS. 1A-3B. On the procedure:
as §1, §2, §3, §4

For `N[C@H]1CCCC[C@@H]1N.[Cl][Au]([Cl])[Cl]` [compound 3, (S,S)-(+)-1,2-(DACH)AuCl3], the “activity / inhibition against gastric cancer cells SGC-7901” value in data set [1] (10 μM) was “moderate inhibition”. Besides, the “bioactivity on SGC-7901 cells, trans-(1R,2R) compared with trans-(1S,2S) isomer” value in data set [1] (conclusion from FIGS. 1A-6B) is “no significant difference in the bioactivity”. Besides, in data set [2] (10 μM), the “activity / inhibition against human prostate cancer cells (PC-3)” value (from here on “activity / inhibition … (PC-3)”) is “moderate inhibition”. For the same molecule, the “bioactivity on PC-3 cells, trans-(1R,2R) compared with trans-(1S,2S) isomer” value in data set [2] (conclusion from FIGS. 1A-6B) is “no significant difference in the bioactivity”.

For cis-(±)-1,2-(DACH)AuCl3 [compound 1], in data set [1] (10 μM), the “activity / inhibition against gastric cancer cells SGC-7901” value was “potentially high activity”. Also, the “cytotoxic effect on SGC-7901 cells, compound 1 compared with compound 2” value in data set [1] (10 μM, one, two and three days, FIG. 7B) is “higher cytotoxic effect in comparison with the same concentration of compound 2”. Further, the “activity / inhibition … (PC-3)” value in data set [2] (10 μM) is listed as “potentially high activity”. Besides, the “cytotoxic effect on PC-3 cells, compound 1 compared with compound 2” value in data set [2] (10 μM, one, two and three days, FIG. 7A) is “higher cytotoxic effect in comparison with the same concentration of compound 2”. Moreover, the “cell proliferation of PC-3 cells compared with SGC-7901 cells” value in data set [2] (fixed 10 μM, after 72 hours, FIGS. 1A and 1B) is given as “bit higher than that of the SGC-7901 cells”.

Consider trans-(±)-1,2-(DACH)AuCl3 [compound 2], for which the “activity / inhibition against gastric cancer cells SGC-7901” value in data set [1] (10 μM) is “moderate inhibition”. Moreover, the “activity / inhibition … (PC-3)” value in data set [2] (10 μM) is “moderate inhibition”.
